Experiments:
Dipeptidyl peptidase 2 = Dipeptidyl peptidase 2 (Homo sapiens, UniProt Q9UHL4); test: Inhibition of QPP
Dipeptidyl peptidase 8 = Dipeptidyl peptidase 8 (Homo sapiens, UniProt Q6V1X1); test: Inhibition of DPP8
Dipeptidyl peptidase 4 = Dipeptidyl peptidase 4 (Homo sapiens, UniProt P27487)
Prolyl endopeptidase FAP = molecular target: T1, Prolyl endopeptidase FAP (Homo sapiens, UniProt Q12884); test: Inhibition of FAP
T1 sequence (Q12884 whole entry): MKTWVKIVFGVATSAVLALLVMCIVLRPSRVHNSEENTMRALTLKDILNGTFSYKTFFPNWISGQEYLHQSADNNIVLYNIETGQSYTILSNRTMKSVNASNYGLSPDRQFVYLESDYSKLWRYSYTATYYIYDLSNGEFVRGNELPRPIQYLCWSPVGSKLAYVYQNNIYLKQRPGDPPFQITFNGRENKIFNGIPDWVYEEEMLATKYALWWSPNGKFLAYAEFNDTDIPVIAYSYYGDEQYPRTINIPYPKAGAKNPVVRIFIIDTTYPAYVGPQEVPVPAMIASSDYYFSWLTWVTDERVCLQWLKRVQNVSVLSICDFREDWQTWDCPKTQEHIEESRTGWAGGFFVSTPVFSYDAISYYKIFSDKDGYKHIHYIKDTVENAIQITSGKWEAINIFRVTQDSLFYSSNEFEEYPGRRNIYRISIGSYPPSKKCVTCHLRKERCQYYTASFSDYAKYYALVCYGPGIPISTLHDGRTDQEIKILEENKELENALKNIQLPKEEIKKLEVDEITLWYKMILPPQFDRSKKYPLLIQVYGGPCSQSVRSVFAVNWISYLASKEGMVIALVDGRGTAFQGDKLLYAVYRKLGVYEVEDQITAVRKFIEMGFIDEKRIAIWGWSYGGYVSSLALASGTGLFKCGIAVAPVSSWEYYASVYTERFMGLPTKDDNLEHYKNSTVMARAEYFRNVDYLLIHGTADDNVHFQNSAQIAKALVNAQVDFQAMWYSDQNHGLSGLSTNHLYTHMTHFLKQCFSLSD

Sequence of Dipeptidyl peptidase 4 (P27487 whole entry): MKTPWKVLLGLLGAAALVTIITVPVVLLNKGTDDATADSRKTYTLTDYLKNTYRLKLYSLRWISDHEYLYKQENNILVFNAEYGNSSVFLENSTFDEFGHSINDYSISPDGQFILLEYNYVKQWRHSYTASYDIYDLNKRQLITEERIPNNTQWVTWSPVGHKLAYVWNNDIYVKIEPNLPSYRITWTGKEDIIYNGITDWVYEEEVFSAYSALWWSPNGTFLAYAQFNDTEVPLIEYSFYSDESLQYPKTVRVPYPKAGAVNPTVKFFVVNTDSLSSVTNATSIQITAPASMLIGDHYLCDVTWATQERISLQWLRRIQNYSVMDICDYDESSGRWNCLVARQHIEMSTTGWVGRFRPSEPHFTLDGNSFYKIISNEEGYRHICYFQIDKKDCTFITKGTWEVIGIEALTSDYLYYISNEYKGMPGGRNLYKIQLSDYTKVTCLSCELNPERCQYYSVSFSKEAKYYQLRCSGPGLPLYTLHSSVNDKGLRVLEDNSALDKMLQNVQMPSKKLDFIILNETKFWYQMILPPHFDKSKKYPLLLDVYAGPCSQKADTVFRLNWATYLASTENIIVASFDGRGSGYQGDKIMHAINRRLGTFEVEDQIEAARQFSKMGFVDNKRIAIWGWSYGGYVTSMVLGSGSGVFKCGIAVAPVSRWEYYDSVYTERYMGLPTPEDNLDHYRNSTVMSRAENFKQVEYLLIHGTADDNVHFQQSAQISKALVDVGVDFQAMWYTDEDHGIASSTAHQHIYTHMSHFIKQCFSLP
Sequence of Dipeptidyl peptidase 8 (Q6V1X1 whole entry): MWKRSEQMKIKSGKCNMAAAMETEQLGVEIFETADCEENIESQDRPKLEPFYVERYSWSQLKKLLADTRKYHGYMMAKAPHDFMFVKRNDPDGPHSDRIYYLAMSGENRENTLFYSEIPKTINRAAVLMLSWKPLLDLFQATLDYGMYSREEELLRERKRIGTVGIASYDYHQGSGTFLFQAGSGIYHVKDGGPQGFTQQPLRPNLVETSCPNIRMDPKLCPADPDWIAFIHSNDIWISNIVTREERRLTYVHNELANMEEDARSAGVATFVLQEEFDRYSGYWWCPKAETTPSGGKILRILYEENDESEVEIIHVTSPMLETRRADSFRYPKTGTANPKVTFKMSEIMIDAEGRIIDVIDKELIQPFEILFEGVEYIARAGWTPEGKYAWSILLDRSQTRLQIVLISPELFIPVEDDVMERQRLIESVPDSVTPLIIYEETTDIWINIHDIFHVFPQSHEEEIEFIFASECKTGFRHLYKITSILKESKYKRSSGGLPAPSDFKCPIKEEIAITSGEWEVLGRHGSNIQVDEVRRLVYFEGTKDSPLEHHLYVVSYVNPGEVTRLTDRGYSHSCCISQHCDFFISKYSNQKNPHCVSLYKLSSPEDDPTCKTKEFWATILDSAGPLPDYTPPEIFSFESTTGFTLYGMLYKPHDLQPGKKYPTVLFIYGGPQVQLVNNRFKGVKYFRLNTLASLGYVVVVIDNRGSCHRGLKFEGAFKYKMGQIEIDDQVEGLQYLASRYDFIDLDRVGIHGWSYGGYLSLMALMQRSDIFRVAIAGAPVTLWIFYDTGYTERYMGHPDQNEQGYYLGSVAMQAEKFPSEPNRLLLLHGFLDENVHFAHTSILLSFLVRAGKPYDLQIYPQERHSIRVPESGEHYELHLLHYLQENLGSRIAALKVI

Row | Compound | IC50 (Dipeptidyl peptidase 2) [µM] | IC50 (Dipeptidyl peptidase 8) [µM] | IC50 (Dipeptidyl peptidase 4) [µM] | IC50 (Prolyl endopeptidase FAP) [µM]
1 | CCN([C@H]1CC[C@H]([C@H](N)Cc2cc(F)ccc2F)CC1)S(C)(=O)=O | 68 | > 100 | 0.26 | > 35
2 | N[C@H](Cc1cc(F)ccc1F)[C@H]1CC[C@H](N2CCC(F)(F)C2)CC1 |  |  |  | > 35
3 | N#Cc1cncc(N2CCC([C@H](N)Cc3cc(F)ccc3F)CC2)c1 |  |  |  | > 35
4 | CC(=O)N(C)[C@H]1CC[C@@H]([C@H](N)Cc2cc(F)ccc2F)CC1 | > 100 |  | 0.99 | > 35
5 | N[C@H](Cc1cc(F)ccc1F)[C@H]1CC[C@H](N2CCCCC2)CC1 |  |  |  | > 35
6 | CCOC(=O)c1cncc(N2CCC([C@H](N)Cc3cc(F)ccc3F)CC2)c1 |  |  |  | > 35
7 | N[C@H](Cc1cc(F)ccc1F)C1CCN(C2CCCC(C(=O)O)C2)CC1 (stereo partly specified) |  |  |  | > 35
8 | CN(C(=O)CCN)[C@H]1CC[C@H]([C@H](N)Cc2cc(F)ccc2F)CC1 | > 100 | > 100 | 0.73 | > 35
9 | N[C@H](Cc1cc(F)ccc1F)[C@H]1CC[C@@H](N2CCCCC2)CC1 |  |  |  | > 35
10 | CS(=O)(=O)N(Cc1ccccc1)[C@H]1CC[C@H]([C@H](N)Cc2cc(F)ccc2F)CC1 | 11 | > 100 | 1.3 | > 35
11 | CN(C(=O)C(C)(C)C)[C@H]1CC[C@H]([C@H](N)Cc2cc(F)ccc2F)CC1 |  |  |  | > 35
12 | CC(=O)N(Cc1ccccc1)[C@H]1CC[C@H]([C@H](N)Cc2cc(F)ccc2F)CC1 | 17 | > 100 | 0.11 | > 35
13 | CC(C)C(=O)N(C)[C@H]1CC[C@H]([C@H](N)Cc2cc(F)ccc2F)CC1 | > 100 | > 100 | 0.13 | > 35
14 | N[C@H](Cc1cc(F)ccc1F)[C@H]1CC[C@@H](N2CCC(F)(F)C2)CC1 |  |  |  | > 35
15 | N[C@H](Cc1cc(F)ccc1F)[C@H]1CC[C@H](N2CCC[C@@H](O)C2)CC1 | > 100 |  | 0.27 | > 35
16 | CN(C(=O)c1c[nH]c2ccccc12)[C@H]1CC[C@H]([C@H](N)Cc2cc(F)ccc2F)CC1 |  |  |  | > 35
17 | CN(C(=O)c1cccnc1)[C@H]1CC[C@H]([C@H](N)Cc2cc(F)ccc2F)CC1 | 58 | > 100 | 0.14 | > 35
18 | NC(=O)[C@H]1CCCN([C@H]2CC[C@H]([C@H](N)Cc3cc(F)ccc3F)CC2)C1 |  |  |  | > 35
19 | CC(=O)Nc1nc(C)c(S(=O)(=O)N(C)[C@H]2CC[C@H]([C@H](N)Cc3cc(F)ccc3F)CC2)s1 |  |  |  | > 35
20 | CN([C@H]1CC[C@H]([C@H](N)Cc2cc(F)ccc2F)CC1)S(=O)(=O)c1ccccc1 |  |  |  | > 35
21 | NC(=O)C1CCCN([C@H]2CC[C@H]([C@H](N)Cc3cc(F)ccc3F)CC2)C1 (single isomer, unassigned) |  |  |  | > 35
22 | CN(C(=O)c1csnn1)[C@H]1CC[C@H]([C@H](N)Cc2cc(F)ccc2F)CC1 |  |  |  | > 35
23 | CN([C@H]1CC[C@H]([C@H](N)Cc2cc(F)ccc2F)CC1)S(=O)(=O)c1ccc(-c2cnco2)cc1 |  |  |  | > 35
24 | N[C@H](Cc1cc(F)ccc1F)[C@H]1CC[C@H](N2CCn3c(nnc3C(F)(F)F)C2)CC1 | 18 |  | 0.33 | > 35
25 | CN([C@H]1CC[C@H]([C@H](N)Cc2cc(F)ccc2F)CC1)S(=O)(=O)c1ccccc1C(F)(F)F |  |  |  | > 35
26 | N[C@H](Cc1cc(F)ccc1F)C1CCN(c2ccc(F)nc2)CC1 |  |  |  | > 35
27 | CN(Cc1cccc(C#N)c1)[C@H]1CC[C@H]([C@H](N)Cc2cc(F)ccc2F)CC1 | 14 | > 100 | 0.22 | > 35
28 | CN([C@H]1CC[C@H]([C@H](N)Cc2cc(F)ccc2F)CC1)S(=O)(=O)c1ccc(N)cc1 |  |  |  | > 35

Row | Compound | IC50 (Dipeptidyl peptidase 2) [µM] | IC50 (Dipeptidyl peptidase 8) [µM] | IC50 (Dipeptidyl peptidase 4) [µM] | IC50 (Prolyl endopeptidase FAP) [µM]
29 | NC(=O)C1CCCC(N2CCC([C@H](N)Cc3cc(F)ccc3F)CC2)C1 (stereo partly specified) |  |  |  | > 35
30 | N[C@H](Cc1cc(F)ccc1F)[C@H]1CC[C@H](N(CCCC(F)(F)F)Cc2ccccc2)CC1 (mixture of isomers) | 23 | > 100 | 0.69 | > 35
31 | CCN(Cc1ccccc1)[C@H]1CC[C@H]([C@H](N)Cc2cc(F)ccc2F)CC1 |  |  |  | > 35
32 | N[C@H](Cc1cc(F)ccc1F)[C@H]1CC[C@H](NCCCC(F)(F)F)CC1 |  |  |  | > 35
33 | Cc1noc(C)c1C(=O)N(C)[C@H]1CC[C@H]([C@H](N)Cc2cc(F)ccc2F)CC1 |  |  |  | > 35
34 | CN([C@H]1CC[C@H]([C@H](N)Cc2cc(F)ccc2F)CC1)S(=O)(=O)c1cccc(C#N)c1 | 9.6 | > 69 | 0.085 | > 35
35 | N[C@H](Cc1cc(F)ccc1F)C1CCN(c2ccccn2)CC1 |  |  |  | > 35
36 | CN([C@H]1CC[C@H]([C@H](N)Cc2cc(F)ccc2F)CC1)S(=O)(=O)c1cccnc1 | 35 | > 100 | 0.11 | > 35
37 | COC(=O)C1CCCC(N2CCC([C@H](N)Cc3cc(F)ccc3F)CC2)C1 (stereo partly specified) |  |  |  | > 35
38 | N[C@H](C(=O)N1CCSC1)[C@H]1CC[C@H](NC(=O)c2ccc(OC(F)(F)F)cc2)CC1 |  |  |  | > 35
39 | CCN([C@H]1CC[C@H]([C@H](N)Cc2cc(F)ccc2F)CC1)S(=O)(=O)c1c(C)noc1C | 29 | > 100 | 0.038 | > 35
40 | Cn1ccc(C(=O)N(C)[C@H]2CC[C@H]([C@H](N)Cc3cc(F)ccc3F)CC2)n1 | 21 | > 100 | 0.14 | > 35
41 | N[C@H](Cc1cc(F)ccc1F)C1CCN(c2ncccn2)CC1 |  |  |  | > 35
42 | CN(Cc1ccc(C#N)cc1)[C@H]1CC[C@H]([C@H](N)Cc2cc(F)ccc2F)CC1 | 12 | > 100 | 0.29 | > 35
43 | CN([C@H]1CC[C@H]([C@H](N)Cc2cc(F)ccc2F)CC1)S(=O)(=O)c1ccc(C#N)cc1 | 23 | > 100 | 0.18 | > 35
44 | NC(=O)C1CCCN([C@H]2CC[C@@H]([C@H](N)Cc3cc(F)ccc3F)CC2)C1 (stereo partly specified) |  |  |  | > 35
45 | CN([C@H]1CC[C@H]([C@H](N)Cc2cc(F)ccc2F)CC1)S(=O)(=O)c1ccc(F)cc1F |  |  |  | > 35
46 | NC(=O)O[C@@H]1CCCN([C@H]2CC[C@H]([C@H](N)Cc3cc(F)ccc3F)CC2)C1 |  |  |  | > 35
47 | CS(=O)(=O)N1CCC([C@H](N)Cc2cc(F)ccc2F)CC1 |  |  |  | > 35
48 | N[C@H](Cc1cc(F)ccc1F)C1CCN(c2ccncc2)CC1 |  |  |  | > 35
49 | N[C@H](Cc1cc(F)ccc1F)C1CCN(c2cnc(=O)[nH]c2)CC1 |  |  |  | > 35
50 | Cc1noc(C)c1S(=O)(=O)N(Cc1ccccc1)[C@H]1CC[C@H]([C@H](N)Cc2cc(F)ccc2F)CC1 | 10 | > 100 | 0.67 | > 35
51 | CN([C@H]1CC[C@H]([C@H](N)Cc2cc(F)ccc2F)CC1)S(=O)(=O)c1ccc(C(N)=O)cc1 |  |  |  | > 35
52 | N[C@H](Cc1cc(F)ccc1F)[C@H]1CC[C@@H](N2CCn3c(nnc3C(F)(F)F)C2)CC1 | > 100 |  | 0.28 | > 35
53 | COc1ncc(N2CCC([C@H](N)Cc3cc(F)ccc3F)CC2)cn1 |  |  |  | > 35
54 | N[C@H](Cc1cc(F)ccc1F)C1CCN(c2cccnc2)CC1 |  |  |  | > 35
55 | CN(C(=O)c1ccno1)[C@H]1CC[C@H]([C@H](N)Cc2cc(F)ccc2F)CC1 | 58 | > 100 | 0.12 | > 35
